US20060211624A1, “Methods and compositions for the treatment of parkinson's disease and other alpha-synucleinopathies” (Goverment of the US, as Represented by, priority 2003, published 2006)
Values belong to the compound of their own block, whether it stands above or below them.

Columns and labels:
tTGase [1] = target: T1, tTGase (Homo sapiens, UniProt P21980); assay: tTGase-induced α-synuclein aggregates by immunocytochemistry in transfected HEK293T cells; assay type: cell-based; conditions: 48 hours
T1 construct: expressed in transfected cells; host or cells: COS-7 (A2); HEK293T (A3); pSG5 expression vector
T1 sequence (P21980 1-687): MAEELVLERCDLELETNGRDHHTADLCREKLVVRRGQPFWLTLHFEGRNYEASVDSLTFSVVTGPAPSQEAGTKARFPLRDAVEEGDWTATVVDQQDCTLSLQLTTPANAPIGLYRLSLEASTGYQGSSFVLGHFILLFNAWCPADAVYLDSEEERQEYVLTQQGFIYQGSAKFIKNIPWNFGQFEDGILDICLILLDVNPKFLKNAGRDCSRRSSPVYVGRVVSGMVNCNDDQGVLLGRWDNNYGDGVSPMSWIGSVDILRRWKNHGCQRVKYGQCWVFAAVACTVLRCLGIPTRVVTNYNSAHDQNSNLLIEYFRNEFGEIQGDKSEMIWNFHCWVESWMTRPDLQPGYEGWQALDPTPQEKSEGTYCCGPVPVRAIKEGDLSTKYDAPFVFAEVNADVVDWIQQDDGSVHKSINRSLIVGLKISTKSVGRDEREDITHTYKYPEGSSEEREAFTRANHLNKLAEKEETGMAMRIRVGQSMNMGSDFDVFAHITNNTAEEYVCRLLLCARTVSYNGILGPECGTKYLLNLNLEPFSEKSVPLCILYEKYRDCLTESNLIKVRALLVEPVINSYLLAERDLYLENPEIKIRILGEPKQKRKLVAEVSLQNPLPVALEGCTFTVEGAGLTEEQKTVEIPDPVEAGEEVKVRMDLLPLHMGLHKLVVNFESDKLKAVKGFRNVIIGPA
Experimental: FIG. 1 depicts α-Synuclein the detection of aggregates by immunocytochemistry. HEK293T cells transiently transfected with α-synuclein in the absence or presence of tTGase were treated with CTM (100 μM, 200 μM) or A23187 (0.1 μg/ml) for 48 hours and stained for α-synuclein and tTGase. Aggregate-containing cells among transfected cells were counted in 10 randomly selected fields. Each microscopic field had 10-20 transfected cells. The data represent means±SEM. Significance levels determined by factorial ANOVA and the Bonferroni post hoc test are shown. *, P<0.002; * *, P<0.06; * * *, P<0.02.
(§1) COS-7 and human embryonic kidney (HEK) 293T cell lines were maintained in DMEM containing 10% FBS. Transfections were performed by using FuGene 6 reagent (Roche Molecular Biochemicals, Indianapolis, Ind.) for a 6 hour incubation period, and then treatments were initiated.
HEK 293T cells transiently transfected as described in the Examples below were cultured in the presence or absence of indicated chemicals in collagen-coated Biocoat slides (Becton Dickinson, Bedford, Mass.) for 48 hours. […] Cells were washed five times with PBS and analyzed under a fluorescence microscope (Axiophot, Zeiss, Thornwood, N.Y.). For quantification of inclusions, 10 microscopic fields were randomly selected, and the percentage of inclusion-positive cells was counted among transfected cells. […]

tTGase [2] = target: T1, tTGase; assay: tTGase-induced α-synuclein aggregation in transfected COS-7 cells (detergent-insoluble fraction, Western blot); assay type: cell-based
Experimental: Suitable tTGase inhibitor compounds for use in the treatment methods and compositions of the invention can be also be assessed by a protocol referred to herein as ‘a standard in vivo tTGase inhibition assay’, set forth as follows: Cells (e.g., neurons, COS-7 cells, or HEK […] cells) are co-transfected with an α-synuclein and tTGase expression plasmids (1 μg each) using FuGene 6 reagent (Roche Molecular Biochemicals, Indianapolis, Ind.) for 6 hours and cultured in DMEM containing 10% FBS for 48 hours. Cells are then lysed in a buffer containing PBS with 1% Triton X-100 and a mixture of protease inhibitors (Roche Molecular Biochemicals). Cells are homogenized with 20 strokes in a Dounce homogenizer, centrifuged at 20,000×g at 4° C. for 30 minutes. The detergent-insoluble fraction is used in Western blot analysis using an anti-α-synuclein antibody as described above for the standard in vitro assay. The cells in the assay can be cultured in the presence or absence of a candidate compound to determine whether the candidate compound can inhibit the production of the high-molecular weight aggregates. This defined standard in vivo tTGase inhibition assay is exemplified in Examples 1 and 2 (including the materials and methods section) which follows.
α-Synuclein cDNA was cloned by PCR from human fetal brain cDNA library (Stratagene, La Jolla, Calif.) (Bennett, M. C. et al. (1999) J. Biol. Chem. 274:33855-33858) and subcloned into pcDNA3.1 (Invitrogen, Carlsbad, Calif.), and pTYB11 (New England Biolabs, Beverly, Mass.). tTGase cDNA was amplified by PCR from human liver cDNA library by using primers 5′-aagaattc[…]-3′ (SEQ ID NO:1) and 5′-aagaattc[…]-3′ (SEQ ID NO:2). Lowercase letters indicate additional nucleotides designed to facilitate cloning. The PCR product was inserted into pSG5 expression vector (Stratagene), and its sequence matched perfectly with the known cDNA sequence of human tTGase (Gentile, V. et al. (1991) J. Biol. Chem. 266:478-483). […] Mouse monoclonal tTGase antibody (CUB 7402) was purchased from DAKO (Carpinteria, Calif.). The rabbit polyclonal tTGase antibody was described in Kim. S. Y. et al. (1999) J. Biol. Chem. 274:30715-30721. Guinea pig liver tTGase, cystamine (CTM), and A23187 were purchased from Sigma (St. Louis, Mo.). Rabbit polyclonal α-synuclein antibodies were obtained from Sigma and Chemicon (Temecula, Calif.). Monoclonal anti-α-synuclein antibodies, SYN-1 and LB509, were from Transduction Laboratories (Lexington, Ky.) and Zymed (South San Francisco, Calif.), respectively. Monoclonal antibody recognizing ε(γ-glutamyl) lysine isodipeptide bonds (81D1C2) was purchased from Covalab (Lyon, France). Recombinant human α-synuclein protein was expressed in pTYB11 and purified by the IMPACT T7 system (New England Biolabs) according to the supplier's instructions.
as §1
Cells were lysed in a buffer containing PBS with 1% Triton X-100 and a mixture of protease inhibitors (Roche Molecular Biochemicals). […] Immunoprecipitates were analyzed by Western blots with antiisodipeptide antibody (81D1C2) or anti-α-synuclein antibody SYN-1 with the ECL detection system (NEN, Boston, Mass.). […]

guinea pig liver tTGase = target: T2, guinea pig liver tTGase (Cavia cutleri, UniProt P08587); assay: In vitro cross-linking reaction of α-synuclein by tTGase (SDS/PAGE, Western blot); assay type: biochemical; conditions: 37° C., 2 hours
T2 construct: purified guinea pig liver tTGase (10 nM); purchased Sigma (St. Louis, Mo.); host or cells: guinea pig liver
T2 sequence (P08587 1-690): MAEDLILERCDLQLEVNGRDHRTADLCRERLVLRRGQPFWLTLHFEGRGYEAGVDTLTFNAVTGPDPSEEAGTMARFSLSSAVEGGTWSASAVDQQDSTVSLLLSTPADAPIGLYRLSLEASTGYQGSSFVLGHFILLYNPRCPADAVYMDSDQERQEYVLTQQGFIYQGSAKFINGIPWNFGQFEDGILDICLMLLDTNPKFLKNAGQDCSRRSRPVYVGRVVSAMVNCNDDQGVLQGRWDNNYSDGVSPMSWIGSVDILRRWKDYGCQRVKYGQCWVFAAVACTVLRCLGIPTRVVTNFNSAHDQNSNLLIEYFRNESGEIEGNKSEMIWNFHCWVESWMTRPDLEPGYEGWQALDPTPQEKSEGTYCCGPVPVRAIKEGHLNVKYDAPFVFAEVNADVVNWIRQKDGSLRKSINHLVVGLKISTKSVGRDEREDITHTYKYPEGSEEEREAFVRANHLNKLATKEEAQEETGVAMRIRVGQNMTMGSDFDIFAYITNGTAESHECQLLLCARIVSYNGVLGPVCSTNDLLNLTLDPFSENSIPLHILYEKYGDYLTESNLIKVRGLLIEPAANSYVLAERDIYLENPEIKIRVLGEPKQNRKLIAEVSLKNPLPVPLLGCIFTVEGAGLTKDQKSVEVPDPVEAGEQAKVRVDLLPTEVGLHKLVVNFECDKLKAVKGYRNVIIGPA
Experimental: Suitable tTGase inhibitor compounds for use in the treatment methods and compositions of the invention can be assessed by straightforward protocols, such as the following. […] The reaction products are then analyzed by standard SDS/PAGE and Western blot using an anti-α-synuclein antibody (e.g., rabbit polyclonal antibodies, available from Sigma or Chemicon (Temecula, Calif.); or monoclonal antibodies such as SYN-1 or LB509, available from Signal Transduction Laboratories (Lexington, Ky.) and Zymed (South San Francisco, Calif.), respectively). […]
The reaction was performed at 37° C. for 2 hours in a buffer containing 50 mM Tris-HCl (pH 7.5), 2 mM leupeptin, and 1 mM purified α-synuclein. […] The reaction was stopped by the addition of 20 mM EDTA, and products were analyzed by SDS/PAGE followed by Western blot.
To study the in vitro cross-linking of α-synuclein, purified recombinant human α-synuclein protein was incubated with guinea pig liver tTGase for 2 hours at 37° C., and the reaction products were analyzed by SDS/PAGE, followed by Western blotting with anti-α-synuclein antibody. […]

[3] = delayed treatment, 200 μM during the final 48 hours of 96 hours, COS-7

SMILES: CNc1ccc2oc(C[C@H]3O[C@@]4(CC[C@H]3C)O[C@H]([C@H](C)C(=O)c3ccc[nH]3)[C@H](C)C[C@H]4C)nc2c1C(=O)O [A23187]
- aggregate formation (aggregate-containing cells among transfected cells) (tTGase [1]; HEK293T cells, 0.1 μg/ml): significantly increased
- high molecular weight bands of α-synuclein (tTGase [2]; COS-7 cells transfected with only α-synuclein, 0.1 μg/ml): some high molecular weight bands
- formation of α-synuclein aggregates (tTGase [2]; α-synuclein- and tTGase-transfected COS-7 cells, 0.1 μg/ml): significant increase

- inclusion formation (aggregate-containing cells among transfected cells) (tTGase [1]; HEK293T cells coexpressing α-synuclein and tTGase, 100 μM, 200 μM): decreased inclusion formation
- further de novo aggregation occurring during the final 48 hours (tTGase [2]; [3]): inhibited further de novo aggregation
- level of aggregates formed during the initial 48 hours (preformed aggregates) (tTGase [2]; [3]): did not diminish
- formation of tTGase-induced α-synuclein aggregates (tTGase [2]; α-synuclein- and tTGase-transfected COS-7 cells, 200 μM for 48 hours): dramatically inhibited
SMILES: NCCSSCCN [CTM, cystamine]

SMILES: [Ca+2].[Cl-].[Cl-] [CaCl2]
- generation of high molecular weight aggregates of α-synuclein (guinea pig liver tTGase; addition of CaCl2 (5 mM), tTGase 10 nM, DTT 0.1 mM): significantly enhanced

SMILES: O=C(O)CN(CCN(CC(=O)O)CC(=O)O)CC(=O)O [EDTA]
- aggregate formation (α-synuclein) (guinea pig liver tTGase; chelation with EDTA (0.1 mM, 5 mM)): dose-dependently blocked
